Reference: PubChem BioAssay AID1259407 (Chemical Carcinogenesis Research Information System (CCRIS), 2018)
The source made the active and inactive calls. How the calls were made is not given here.

System: CCRIS mutagenicity, Ames/micronucleus/aberration tests
Assay: CCRIS mutagenicity studies

Compound | mutagenic call (Test System: AMES SALMONELLA TYPHIMURIUM, Strain/Indicator: TA98, Metabolic Activation: HAMSTER, LIVER, S-9, AROCLOR 1254, Method: STANDARD PLATE) | mutagenic call (Test System: AMES SALMONELLA TYPHIMURIUM, Strain/Indicator: TA98, Metabolic Activation: HAMSTER, LIVER, S-9, Method: PREINCUBATION (PRIVAL METHOD)) | mutagenic call (Test System: AMES SALMONELLA TYPHIMURIUM, Strain/Indicator: TA100, Metabolic Activation: HAMSTER, LIVER, S-9, Method: PREINCUBATION (PRIVAL METHOD)) | mutagenic call (Test System: AMES SALMONELLA TYPHIMURIUM, Strain/Indicator: TA1538, Metabolic Activation: HAMSTER, LIVER, S-9, AROCLOR 1254, Method: STANDARD PLATE) | mutagenic call (Test System: Mouse lymphoma, Strain/Indicator: L5178Y (tk+/tk-), Metabolic Activation: None, Method: Suspension/plate) | mutagenic call (Test System: Mouse lymphoma, Strain/Indicator: L5178Y (tk+/tk-), Metabolic Activation: Rat, Liver, S-9, Aroclor 1254, Method: Suspension/plate) | mutagenic call (Test System: AMES SALMONELLA TYPHIMURIUM, Strain/Indicator: TA98, Metabolic Activation: RAT, LIVER, S-9, AROCLOR 1254, Method: STANDARD PLATE) | mutagenic call (Test System: AMES SALMONELLA TYPHIMURIUM, Strain/Indicator: TA100, Metabolic Activation: RAT, LIVER, S-9, AROCLOR 1254, Method: STANDARD PLATE)
CCN(Cc1cccc(S(=O)(=O)O)c1)c1ccc(C(=C2C=CC(=[N+](CC)Cc3cccc(S(=O)(=O)[O-])c3)C=C2)c2ccc(S(=O)(=O)O)cc2)cc1 | active; positive | active; positive | active; positive | active; positive | active; positive | inactive; negative | – | –
Clc1ccc2ccc3cccc4ccc1c2c34 | – | – | – | – | – | – | active; positive | active; positive
